Assay results taken from patent publication US20060258717A1, “ORGANIC COMPOUNDS” (priority 2004, published 2006).
Where two headings read alike, the source gives them in different places.

Test system: human umbilical vein endothelial cells (HUVECs)
Conditions: for number of tubes (capillary networking) versus control: 24 hours, HUVECs on growth factor-reduced Matrigel, 8 wells, five random fields per well
Experimental: Various concentrations of compound A (0.1, 1, and 10 μM) are tested to assess the quality of effect of this compound on capillary networking (tube formation) in cultured human umbilical vein endothelial cells (HUVECs) seeded on growth factor-reduced Matrigel. The intensity of capillary networking is evaluated at 24 hours using a phase-contrast microscope. Images are captured and analySYS 3.2 software is used to count the number of tubes in five random fields of each well (8 wells altogether). The effect of the compound is compared to untreated cells grown in cell culture medium (control).

Question: Which “number of tubes (capillary networking) versus control” value (1 μM compound) does the source give for `Cc1nccn1Cc1ccccn1` [Compound A, [2-(2-methylimidazol-1-yl)methyl]pyridine] here?
Answer: Its value is “significantly decreases the number of tubes”.

Question: What about the “number of tubes (capillary networking) versus control” value (10 μM compound) of the same compound?
Answer: The value was “significantly decreases the number of tubes”.

Question: What about the “cell toxicity (ToxiLight, ATP release from damaged cells)” value (additional study, concentrations not given) of the same compound?
Answer: The value was “not related to cell toxicity”.
